Values of other authors, collected in patent US4966768A, “Sustained release etodolac” (priority 1988, dated 1990).
Entries after “also recorded” stand apart in the source; their conditions may differ.

Key:
adjuvant arthirtis = details: reported in U.S. Pat. No. 4,533,551
[1] = in vivo

- difference in solubility between pH 5 and 7 (between pH 5 to 7): thirty
Compound: CCc1cccc2c3c([nH]c12)C(CC)(CC(=O)O)OCC3 (centres unmarked) [Etodolac, 1,8-diethyl-1,3,4,9-tetrahydropyrano[3,4-b] indole-1-acetic acid]
- activity in adjuvant arthritis (in words) (adjuvant arthirtis): active in the treatment of adjuvant arthirtis
- reported pharmacological properties (in words) [1]: analgesic and anti-inflammatory properties
- aqueous solubility (in words) (below pH 3): very low and pH independent below pH 3; also recorded: water insoluble to an appreciable extent below pH 3
- aqueous solubility with rising pH (in words) (up to pH 5 and from pH 5 to 7): gradually increases with rising pH up to 5 and linearly increases with increasing pH to 7
